The subject of this test is liver tumor of human pancreatic cancer. As to the kind of experiment: Diffusion MRI analysis of tumor response to drug treatment in vivo (liver xenograft). The note with it: human pancreatic cancer tumor implanted in mouse liver; intraperitoneally 1 mg/kg/d; before vs 24 hours after initiation of treatment; FIG. 4C. From the text: FIGS. 4A-D show MRI analysis to assess tumor response to drug treatment in vivo. To evaluate tumor response to treatment in vivo in addition to US imaging technologies such as MRI that utilizes anatomical MRI, diffusion MRI, spectroscopy and Dynamic Contrast Enhanced (DCE) MRI can be used. Of these, diffusion, spectroscopy and DCE show great promise in determining early response to drug treatment, even before changes in tumor volume are observed. Anatomical and diffusion MRI techniques were used on the same liver tumor of human pancreatic cancer before (FIG. 4A) and 24 hours after (FIG. 4B) the initiation of gemcitabine (intraperitoneally 1 mg/kg/d) treatment. […] Laparoscopy or laparotomy can be used to assess tumor growth and to harvest tumor cells in liver (FIG. 4D).

In the case of `Nc1ccn([C@@H]2O[C@H](CO)[C@@H](O)C2(F)F)c(=O)n1` [gemcitabine], the “tumor water diffusion by diffusion MRI (early response to drug treatment)” value was “right shift in tumor water diffusion”.

For the origin of these results see patent US20140047570A1, “ANIMAL MODEL OF HUMAN CANCER AND METHODS OF USE” (H. LEE MOFFITT CANCER CENTER AND RESEARCH INSTITUTE, INC., priority 2011, published 2014).
